{"source": "patent US20180271826A1", "about": "“DRY POWDERS OF CANNABINOIDS AND METHODS FOR PREPARING DRY POWDERS” (COLORADO CAN LLC, priority 2017, published 2018)", "origin": "cited, not measured here", "key": {"[1]": {"conditions": "burning of cannabis cigarettes (Elzinga 2015)"}, "[2]": {"conditions": "cannabis resin, 4 years, 4° C. in the dark (Trofin 2012)"}, "[3]": {"conditions": "oral ingestion (Ohlsson 1980)"}, "[4]": {"conditions": "plant material, room temperature (20° C.) near a source of light, a little under two years (Fairbarn 1976)"}, "[5]": {"conditions": "transdermal patch (Stinchcomb 2004)"}}}
{"smiles": "C=C(C)[C@@H]1CCC(C)=C[C@H]1c1c(O)cc(CCCCC)cc1O", "note": "[CBD, cannabidiol]", "values": [{"measurement": "theoretically present amount recovered in total smoke and remaining ash", "setting": "[1]", "value": 38.4, "unit": "%"}, {"measurement": "original content degraded", "setting": "[2]", "value": 55.75, "unit": "%"}]}
{"smiles": "CCCCCc1cc(O)c2c(c1)OC(C)(C)[C@@H]1CCC(C)=C[C@@H]21", "note": "[THC, Δ9-tetrahydrocannabinol]", "values": [{"measurement": "time of peak THC concentrations after dosing", "setting": "[3]", "value": "1 to 5", "unit": "h"}, {"measurement": "theoretically present amount recovered in total smoke and remaining ash", "setting": "[1]", "value": 36.9, "unit": "%"}, {"measurement": "original content degraded", "setting": "[2]", "value": 95.77, "unit": "%"}, {"measurement": "original THC content remaining", "setting": "[4]", "value": 37, "unit": "%"}, {"measurement": "peak THC concentration", "setting": "[5]", "value": 4.4, "unit": "ng/mL"}, {"measurement": "time of peak THC concentration", "setting": "[5]", "value": 1.4, "unit": "h"}]}
